In PubChem BioAssay (NCI):
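Cells were grown in 96-well plates and exposed to each compound for 48 hours at five concentrations; endpoints were interpolated linearly between bracketing concentrations, or set to the highest concentration if not reached. GI50 marks 50% less growth. TGI denotes the concentration required for complete inhibition of growth.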

Tests used:
Assay in all cases: inhibition of tumour cell growth, NCI panel, 48 h
HCT-116 colon = system: HCT-116 colon
NCI-H522 lung = system: NCI-H522 lung
SK-OV-3 ovarian = system: SK-OV-3 ovarian
SNB-75 CNS = system: SNB-75 CNS
OVCAR-3 ovarian = system: OVCAR-3 ovarian
HT29 colon = system: HT29 colon
HOP-92 NSCLC = system: HOP-92 NSCLC
RXF 393 renal = system: RXF 393 renal
K-562 leukemia = system: K-562 leukemia
NCI/ADR-RES ovarian = system: NCI/ADR-RES ovarian

SMILES	GI50 (HCT-116 colon) [µM]	TGI (HCT-116 colon) [µM]	GI50 (NCI-H522 lung) [µM]	TGI (NCI-H522 lung) [µM]	GI50 (SK-OV-3 ovarian) [µM]	TGI (SK-OV-3 ovarian) [µM]	GI50 (SNB-75 CNS) [µM]	TGI (SNB-75 CNS) [µM]	GI50 (OVCAR-3 ovarian) [µM]	TGI (OVCAR-3 ovarian) [µM]	GI50 (HT29 colon) [µM]	TGI (HT29 colon) [µM]	GI50 (HOP-92 NSCLC) [µM]	TGI (HOP-92 NSCLC) [µM]	GI50 (RXF 393 renal) [µM]	TGI (RXF 393 renal) [µM]	GI50 (K-562 leukemia) [µM]	TGI (K-562 leukemia) [µM]	GI50 (NCI/ADR-RES ovarian) [µM]	TGI (NCI/ADR-RES ovarian) [µM]
O=C(CCc1ccco1)NC1CCN(CC2(c3ccc(Cl)cc3)CCC2)CC1	12.2	24.5	14.6	30	16.9	32.9	10	21.7	15.6	32.4	3.44	11.8	4.69	20.3	8.53	22.6	2.17	4.62	14.6	36
Cc1cc(C(=O)N[C@@H](CCC(=O)O)C(=O)O)sc1CC[C@@H]1CNc2nc(N)[nH]c(=O)c2C1	< 0.0127	> 100	0.0322	> 100	< 0.0205	> 100	0.252	> 100	0.048	> 100	< 0.0178	> 100	0.0592	> 100	< 0.0153	> 100	< 0.01	> 100	0.0481	> 100
COc1ccc(N2CCN(CN3CCN(c4ccc(OC)cc4)C3)C2)cc1	20.2	50	> 100	> 100	> 100	> 100	> 100	> 100	> 100	> 100	> 100	> 100	57.9	> 100	> 100	> 100	27.8	52.7	> 100	> 100
